In USRE31731E, “Herbicidal 4-trifluoromethyl-4-nitrodiphenyl ethers” (priority 1978, dated 1984):

System: Monocots
Test: Herbicidal activity, preemergence, monocot weeds (Table II)
Format: in vivo
Conditions: pre-emergence, 336 h, 2 lb./A., about 2 weeks, read-out: % control (percent of plants killed)
Summary of the method: (§1)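 Value is mean percent kill, judged roughly 2 weeks post-treatment. Acetone/water spray at 50 gal/A, given either right after sowing in soil flats (preemergence) or once seedlings were 2 weeks old (postemergence); rates in lb/A.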

Row | Structure (SMILES) | pest or weed control at 2241.7 g/ha
1 | CCOC(=O)C(C)Oc1cc(Oc2ccc(C(F)(F)F)cc2Cl)ccc1[N+](=O)[O-] (stereo not drawn) [Example 26, 2-Chloro-α,α,α-trifluoro-p-tolyl-3-(1-carbethoxyethoxy)-4-nitrophenyl ether] | 75%
2 | CCN(CCO)c1cc(Oc2ccc(C(F)(F)F)cc2Cl)ccc1[N+](=O)[O-] [Example 54] | 98%

Same assay, conditions: pre-emergence, 336 h, 4 lb./A., about 2 weeks, read-out: % control (percent of plants killed)

Row | Structure (SMILES) | pest or weed control at 4483.4 g/ha
3 | CCOC(=O)C(C)Oc1cc(Oc2ccc(C(F)(F)F)cc2Cl)ccc1[N+](=O)[O-] (stereo not drawn) [Example 26, 2-Chloro-α,α,α-trifluoro-p-tolyl-3-(1-carbethoxyethoxy)-4-nitrophenyl ether] | 98%
4 | CCN(CCO)c1cc(Oc2ccc(C(F)(F)F)cc2Cl)ccc1[N+](=O)[O-] [Example 54] | 83%

System: Dicots
Test: Herbicidal activity, preemergence, dicot weeds (Table II)
Format: in vivo
Conditions: pre-emergence, 336 h, 2 lb./A., about 2 weeks, read-out: % control (percent of plants killed)
Summary of the method: (§2)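 Plants were scored roughly 2 weeks post-treatment for percent kill (average percent control). Treatment was an acetone–water spray in 50 gal/acre carrier at the listed pounds per acre, applied either immediately after sowing or to 2-week-old seedlings.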

Row | Structure (SMILES) | pest or weed control at 2241.7 g/ha
5 | CCOC(=O)C(C)Oc1cc(Oc2ccc(C(F)(F)F)cc2Cl)ccc1[N+](=O)[O-] (stereo not drawn) [Example 26, 2-Chloro-α,α,α-trifluoro-p-tolyl-3-(1-carbethoxyethoxy)-4-nitrophenyl ether] | 99%
6 | CCN(CCO)c1cc(Oc2ccc(C(F)(F)F)cc2Cl)ccc1[N+](=O)[O-] [Example 54] | 98%

Same assay, conditions: pre-emergence, 336 h, 4 lb./A., about 2 weeks, read-out: % control (percent of plants killed)

Row | Structure (SMILES) | pest or weed control at 4483.4 g/ha
7 | CCOC(=O)C(C)Oc1cc(Oc2ccc(C(F)(F)F)cc2Cl)ccc1[N+](=O)[O-] (stereo not drawn) [Example 26, 2-Chloro-α,α,α-trifluoro-p-tolyl-3-(1-carbethoxyethoxy)-4-nitrophenyl ether] | 100%
8 | CCN(CCO)c1cc(Oc2ccc(C(F)(F)F)cc2Cl)ccc1[N+](=O)[O-] [Example 54] | 75%

System: Monocots
Test: Herbicidal activity, postemergence, monocot weeds (Table II)
Format: in vivo
Conditions: post-emergence, 336 h, 2 lb./A., about 2 weeks, read-out: % control (percent of plants killed)
Summary of the method: as §1

Row | Structure (SMILES) | pest or weed control at 2241.7 g/ha
9 | CCOC(=O)C(C)Oc1cc(Oc2ccc(C(F)(F)F)cc2Cl)ccc1[N+](=O)[O-] (stereo not drawn) [Example 26, 2-Chloro-α,α,α-trifluoro-p-tolyl-3-(1-carbethoxyethoxy)-4-nitrophenyl ether] | 93%
10 | CCN(CCO)c1cc(Oc2ccc(C(F)(F)F)cc2Cl)ccc1[N+](=O)[O-] [Example 54] | 71%

Same assay, conditions: post-emergence, 336 h, 4 lb./A., about 2 weeks, read-out: % control (percent of plants killed)

Row | Structure (SMILES) | pest or weed control at 4483.4 g/ha
11 | CCOC(=O)C(C)Oc1cc(Oc2ccc(C(F)(F)F)cc2Cl)ccc1[N+](=O)[O-] (stereo not drawn) [Example 26, 2-Chloro-α,α,α-trifluoro-p-tolyl-3-(1-carbethoxyethoxy)-4-nitrophenyl ether] | 99%
12 | CCN(CCO)c1cc(Oc2ccc(C(F)(F)F)cc2Cl)ccc1[N+](=O)[O-] [Example 54] | 79%

System: Dicots
Test: Herbicidal activity, postemergence, dicot weeds (Table II)
Format: in vivo
Conditions: post-emergence, 336 h, 2 lb./A., about 2 weeks, read-out: % control (percent of plants killed)
Summary of the method: as §2

Row | Structure (SMILES) | pest or weed control at 2241.7 g/ha
13 | CCOC(=O)C(C)Oc1cc(Oc2ccc(C(F)(F)F)cc2Cl)ccc1[N+](=O)[O-] (stereo not drawn) [Example 26, 2-Chloro-α,α,α-trifluoro-p-tolyl-3-(1-carbethoxyethoxy)-4-nitrophenyl ether] | 100%
14 | CCN(CCO)c1cc(Oc2ccc(C(F)(F)F)cc2Cl)ccc1[N+](=O)[O-] [Example 54] | 100%

Same assay, conditions: post-emergence, 336 h, 4 lb./A., about 2 weeks, read-out: % control (percent of plants killed)

Row | Structure (SMILES) | pest or weed control at 4483.4 g/ha
15 | CCOC(=O)C(C)Oc1cc(Oc2ccc(C(F)(F)F)cc2Cl)ccc1[N+](=O)[O-] (stereo not drawn) [Example 26, 2-Chloro-α,α,α-trifluoro-p-tolyl-3-(1-carbethoxyethoxy)-4-nitrophenyl ether] | 100%
16 | CCN(CCO)c1cc(Oc2ccc(C(F)(F)F)cc2Cl)ccc1[N+](=O)[O-] [Example 54] | 100%

System: snapbeans
Test: Crop tolerance, snapbeans
Format: in vivo
Conditions: preemergence; 50% or less kill of crop at rates giving more than 50% kill of weeds
Procedure: (§3) The following test procedure is employed. Seeds of selected crops and weeds are planted in soil in flats. For preemergence tests, the flats are treated with the test compound immediately after the planting. For postemergence tests, the seeds are allowed to germinate, and after 2 weeks the flats are treated with the test compound. The compound to be evaluated is dissolved in acetone, diluted with water, and sprayed over the flats using a carrier volume equivalent to 50 gallons per acre at the rate of application (pounds per acre, lb/A.) specified in the tables. About 2 weeks after the application of the test compound, the state of growth of the plants is observed and the phytotoxic effect of the compound is evaluated. Table II gives the average percent control achieved by the test compounds in terms of the percent of the plants which are killed by the compounds.
(§4) Following the general test procedure of Example 73, diphenyl ethers are evaluated for significant tolerance (as shown by 50% or less kill of the test crop at levels of application which give more than 50% kill of many or all of the weeds of Example 73) towards some or all of the following common agronomic crops (not all compounds tested against all crops): alfalfa, snapbeans, corn, cotton, cucumbers, peanuts, rape, rice, safflower, soybeans, tomatoes, and wheat.

Row | Structure (SMILES) | Tolerance to snapbeans
17 | CCOC(=O)C(C)Oc1cc(Oc2ccc(C(F)(F)F)cc2Cl)ccc1[N+](=O)[O-] (stereo not drawn) [Example 26, 2-Chloro-α,α,α-trifluoro-p-tolyl-3-(1-carbethoxyethoxy)-4-nitrophenyl ether] | Tolerance

System: corn
Test: Crop tolerance, corn
Format: in vivo
Conditions: postemergence; 50% or less kill of crop at rates giving more than 50% kill of weeds
Procedure: as §3, §4

Row | Structure (SMILES) | Tolerance to corn
18 | CCOC(=O)C(C)Oc1cc(Oc2ccc(C(F)(F)F)cc2Cl)ccc1[N+](=O)[O-] (stereo not drawn) [Example 26, 2-Chloro-α,α,α-trifluoro-p-tolyl-3-(1-carbethoxyethoxy)-4-nitrophenyl ether] | Tolerance
19 | CCN(CCO)c1cc(Oc2ccc(C(F)(F)F)cc2Cl)ccc1[N+](=O)[O-] [Example 54] | Tolerance

Same assay, conditions: preemergence; 50% or less kill of crop at rates giving more than 50% kill of weeds

Row | Structure (SMILES) | Tolerance to corn
20 | CCN(CCO)c1cc(Oc2ccc(C(F)(F)F)cc2Cl)ccc1[N+](=O)[O-] [Example 54] | Tolerance

System: peanuts
Test: Crop tolerance, peanuts
Format: in vivo
Conditions: postemergence; 50% or less kill of crop at rates giving more than 50% kill of weeds
Procedure: as §3, §4

Row | Structure (SMILES) | Tolerance to peanuts
21 | CCN(CCO)c1cc(Oc2ccc(C(F)(F)F)cc2Cl)ccc1[N+](=O)[O-] [Example 54] | Tolerance

System: rice
Test: Crop tolerance, rice
Format: in vivo
Conditions: postemergence or on transplanted rice; 50% or less kill of crop at rates giving more than 50% kill of weeds
Procedure: as §3, §4

Row | Structure (SMILES) | Tolerance to rice
22 | CCN(CCO)c1cc(Oc2ccc(C(F)(F)F)cc2Cl)ccc1[N+](=O)[O-] [Example 54] | Tolerance

Same assay, conditions: preemergence; 50% or less kill of crop at rates giving more than 50% kill of weeds

Row | Structure (SMILES) | Tolerance to rice
23 | CCN(CCO)c1cc(Oc2ccc(C(F)(F)F)cc2Cl)ccc1[N+](=O)[O-] [Example 54] | Tolerance

System: soybeans
Test: Crop tolerance, soybeans
Format: in vivo
Conditions: preemergence; 50% or less kill of crop at rates giving more than 50% kill of weeds
Procedure: as §3, §4

Row | Structure (SMILES) | Tolerance to soybeans
24 | CCOC(=O)C(C)Oc1cc(Oc2ccc(C(F)(F)F)cc2Cl)ccc1[N+](=O)[O-] (stereo not drawn) [Example 26, 2-Chloro-α,α,α-trifluoro-p-tolyl-3-(1-carbethoxyethoxy)-4-nitrophenyl ether] | Tolerance
25 | CCN(CCO)c1cc(Oc2ccc(C(F)(F)F)cc2Cl)ccc1[N+](=O)[O-] [Example 54] | Tolerance

System: wheat
Test: Crop tolerance, wheat
Format: in vivo
Conditions: postemergence; 50% or less kill of crop at rates giving more than 50% kill of weeds
Procedure: as §3, §4

Row | Structure (SMILES) | Tolerance to wheat
26 | CCN(CCO)c1cc(Oc2ccc(C(F)(F)F)cc2Cl)ccc1[N+](=O)[O-] [Example 54] | Tolerance

Same assay, conditions: preemergence; 50% or less kill of crop at rates giving more than 50% kill of weeds

Row | Structure (SMILES) | Tolerance to wheat
27 | CCOC(=O)C(C)Oc1cc(Oc2ccc(C(F)(F)F)cc2Cl)ccc1[N+](=O)[O-] (stereo not drawn) [Example 26, 2-Chloro-α,α,α-trifluoro-p-tolyl-3-(1-carbethoxyethoxy)-4-nitrophenyl ether] | Tolerance
28 | CCN(CCO)c1cc(Oc2ccc(C(F)(F)F)cc2Cl)ccc1[N+](=O)[O-] [Example 54] | Tolerance
